Assay results from EP0487768A1, “Pharmaceutical composition with improved dissolution property” (YOSHITOMI PHARMACEUTICAL INDUSTRIES, LTD., priority 1990, dated 1992).

Assay: Solubility of Compound A in mediums with various pHs
Format: physicochemical
Conditions: mediums with various pHs including water (Fig. 4)
Source text: Thus, as shown in Fig. 5 in the results of the dissolution test of the tablets prepared by a conventional means employed for formulation of preparations, such as mixing Compound A with lactose, corn starch, etc. for granulation, adding talc, magnesium stearate, etc. and compressing same, the dissolution property is not entirely satisfactory, reflecting the properties of the compound per se.
Fig. 1 is a graph showing the results of the dissolution test of the fine granules of Reference Example 1 and Example 1 in the 1st fluid and the 2nd fluid, Fig. 2 is a graph showing the results of the dissolution test of the tablets of Reference Example 2 and Example 2 in the 1st fluid and the 2nd fluid, Fig. 3 is a graph showing the results of the dissolution test of the fine granules of Reference Example 1 and Example 3 in the 1st fluid and the 2nd fluid, Fig. 4 is a graph showing the solubilities of Compound A in mediums with various pHs, and Fig. 5 is a graph showing the results of the dissolution test of the tablets prepared by the conventional formulation methods in the 1st fluid and the 2nd fluid.

O=c1cc2c(nn1-c1ccc(Cl)cc1)-c1ccccc1[S+]([O-])CC2 (stereo not shown) [Compound A, 2-(4-chlorophenyl)-5,6-dihydro-(1)benzothiepino[5,4-c]pyridazine-3(2H)-one 7-oxide]
solubility: slightly soluble
